{
  "source": "patent US20200222474A1",
  "about": "“COMPOSITIONS AND METHODS FOR INCREASING PHYTOCHEMICAL BIOAVAILABLITY AND BIOACTIVITY” (North Carolina State University, priority 2017, published 2020)",
  "test_system": "L. acidophilus NCFM",
  "experiment": "RNA-seq transcriptional analysis of L. acidophilus NCFM growing on plant glycosides",
  "format": "cell-based, Lactobacillus acidophilus",
  "key": {"[1]": {"conditions": "LBA1481 D-ribose-binding protein precursor, COG G"}, "[2]": {"conditions": "LBA1482 Ribose ABC transporter, COG G"}, "[3]": {"conditions": "LBA1483 Ribose ABC transporter ATP binding protein, COG G"}, "[4]": {"conditions": "LBA1484 D-ribose pyranase, COG G"}, "[5]": {"conditions": "LBA1494 Lincomycin-resistance protein, COG GEPR"}, "[6]": {"conditions": "LBA1607 Phosphatidylserine decarboxylase precursor, COG I"}, "[7]": {"conditions": "LBA1632 NAD-dependent aldehyde dehydrogenase, COG C"}, "[8]": {"conditions": "LBA1653 Nicotinamide mononucleotide, COG H"}, "[9]": {"conditions": "LBA1684 Putative PTS system IIA component, COG G"}, "[10]": {"conditions": "LBA1689 Maltose-6′-phosphate Oucosidase, COG G"}, "[11]": {"conditions": "LBA1700 Transcriptional regulator-type, COG K"}, "[12]": {"conditions": "LBA1701 Melibiose operon regulatory protein, COG K"}, "[13]": {"conditions": "LBA1705 PTS system IIBC component, COG G"}, "[14]": {"conditions": "LBA1708 Transcriptional antiterminator, COG K"}, "[15]": {"conditions": "LBA1710 Thermostable pullulanase, COG G"}, "[16]": {"conditions": "LBA1812 Alpha-glucosidase II, COG G"}, "[17]": {"conditions": "LBA1870 Maltose phosphorylase, COG G"}, "[18]": {"conditions": "LBA1872 Oligo-1,6-glucosidase, COG G"}, "[19]": {"conditions": "LBA1955 Transcription regulator family protein, COG K"}, "[20]": {"conditions": "gene LBA0046 (Hypothetical protein)"}, "[21]": {"conditions": "gene LBA0149 (Putative nucleotide-binding protein)"}, "[22]": {"conditions": "gene LBA0263 (Hypothetical protein)"}},
  "data": [
    {"smiles": "N#C[C@H](O[C@@H]1O[C@H](CO[C@@H]2O[C@H](CO)[C@@H](O)[C@H](O)[C@H]2O)[C@@H](O)[C@H](O)[C@H]1O)c1ccccc1", "note": "[Amygdalin]", "values": [
      {"measurement": "Transcripts per million (rpm)", "setting": "LBA1468 Beta-galactosidase small subunit, COG G", "value": 61.3, "unit": "rpm"},
      {"measurement": "Log2 differential normalized TPM ratio compared to glucose", "setting": "[1]", "value": 3},
      {"measurement": "Log2 differential normalized TPM ratio compared to lactose", "setting": "[1]", "value": 2.3},
      {"measurement": "Transcripts per million (rpm)", "setting": "[1]", "value": 33, "unit": "rpm"},
      {"measurement": "Log2 differential normalized TPM ratio compared to glucose", "setting": "[2]", "value": 3.4},
      {"measurement": "Log2 differential normalized TPM ratio compared to lactose", "setting": "[2]", "value": 2.3},
      {"measurement": "Transcripts per million (rpm)", "setting": "[2]", "value": 32.6, "unit": "rpm"},
      {"measurement": "Log2 differential normalized TPM ratio compared to glucose", "setting": "[3]", "value": 3.6},
      {"measurement": "Log2 differential normalized TPM ratio compared to lactose", "setting": "[3]", "value": 2.6},
      {"measurement": "Transcripts per million (rpm)", "setting": "[3]", "value": 30.8, "unit": "rpm"},
      {"measurement": "Log2 differential normalized TPM ratio compared to glucose", "setting": "[4]", "value": 3.6},
      {"measurement": "Log2 differential normalized TPM ratio compared to lactose", "setting": "[4]", "value": 2.9},
      {"measurement": "Transcripts per million (rpm)", "setting": "[4]", "value": 37.3, "unit": "rpm"},
      {"measurement": "Log2 differential normalized TPM ratio compared to glucose", "setting": "LBA1485 Ribokinase, COG G", "value": 3.5},
      {"measurement": "Log2 differential normalized TPM ratio compared to lactose", "setting": "LBA1485 Ribokinase, COG G", "value": 2.8},
      {"measurement": "Transcripts per million (rpm)", "setting": "LBA1485 Ribokinase, COG G", "value": 29.8, "unit": "rpm"},
      {"measurement": "Log2 differential normalized TPM ratio compared to glucose", "setting": "[5]", "value": "−0.7"},
      {"measurement": "Log2 differential normalized TPM ratio compared to lactose", "setting": "[5]", "value": "−0.8"},
      {"measurement": "Transcripts per million (rpm)", "setting": "[5]", "value": 2.6, "unit": "rpm"},
      {"measurement": "Log2 differential normalized TPM ratio compared to glucose", "setting": "[6]", "value": 2.6},
      {"measurement": "Log2 differential normalized TPM ratio compared to lactose", "setting": "[6]", "value": 1.6},
      {"measurement": "Transcripts per million (rpm)", "setting": "[6]", "value": 102.4, "unit": "rpm"},
      {"measurement": "Log2 differential normalized TPM ratio compared to glucose", "setting": "[7]", "value": 4.4},
      {"measurement": "Log2 differential normalized TPM ratio compared to lactose", "setting": "[7]", "value": 2.6},
      {"measurement": "Transcripts per million (rpm)", "setting": "[7]", "value": 1223.3, "unit": "rpm"},
      {"measurement": "Log2 differential normalized TPM ratio compared to glucose", "setting": "[8]", "value": "−0.1"},
      {"measurement": "Log2 differential normalized TPM ratio compared to lactose", "setting": "[8]", "value": "−0.7"},
      {"measurement": "Transcripts per million (rpm)", "setting": "[8]", "value": 180.2, "unit": "rpm"},
      {"measurement": "Log2 differential normalized TPM ratio compared to glucose", "setting": "[9]", "value": 6.6},
      {"measurement": "Log2 differential normalized TPM ratio compared to lactose", "setting": "[9]", "value": 4.7},
      {"measurement": "Transcripts per million (rpm)", "setting": "[9]", "value": 976.1, "unit": "rpm"},
      {"measurement": "Log2 differential normalized TPM ratio compared to glucose", "setting": "[10]", "value": 5.3},
      {"measurement": "Log2 differential normalized TPM ratio compared to lactose", "setting": "[10]", "value": 3.9},
      {"measurement": "Transcripts per million (rpm)", "setting": "[10]", "value": 113.8, "unit": "rpm"},
      {"measurement": "Log2 differential normalized TPM ratio compared to glucose", "setting": "[11]", "value": 2.5},
      {"measurement": "Log2 differential normalized TPM ratio compared to lactose", "setting": "[11]", "value": 2.1},
      {"measurement": "Transcripts per million (rpm)", "setting": "[11]", "value": 96.2, "unit": "rpm"},
      {"measurement": "Log2 differential normalized TPM ratio compared to glucose", "setting": "[12]", "value": 5.3},
      {"measurement": "Log2 differential normalized TPM ratio compared to lactose", "setting": "[12]", "value": 4.6},
      {"measurement": "Transcripts per million (rpm)", "setting": "[12]", "value": 1323.5, "unit": "rpm"},
      {"measurement": "Log2 differential normalized TPM ratio compared to glucose", "setting": "[13]", "value": 2.7},
      {"measurement": "Log2 differential normalized TPM ratio compared to lactose", "setting": "[13]", "value": 1.9},
      {"measurement": "Transcripts per million (rpm)", "setting": "[13]", "value": 18.5, "unit": "rpm"},
      {"measurement": "Log2 differential normalized TPM ratio compared to glucose", "setting": "[14]", "value": 2.8},
      {"measurement": "Log2 differential normalized TPM ratio compared to lactose", "setting": "[14]", "value": 1.4},
      {"measurement": "Transcripts per million (rpm)", "setting": "[14]", "value": 3.3, "unit": "rpm"},
      {"measurement": "Log2 differential normalized TPM ratio compared to glucose", "setting": "[15]", "value": 2.1},
      {"measurement": "Log2 differential normalized TPM ratio compared to lactose", "setting": "[15]", "value": 1.7},
      {"measurement": "Transcripts per million (rpm)", "setting": "[15]", "value": 26.7, "unit": "rpm"},
      {"measurement": "Log2 differential normalized TPM ratio compared to glucose", "setting": "LBA1723 Transposase, COG L", "value": 2},
      {"measurement": "Log2 differential normalized TPM ratio compared to lactose", "setting": "LBA1723 Transposase, COG L", "value": 1.8},
      {"measurement": "Transcripts per million (rpm)", "setting": "LBA1723 Transposase, COG L", "value": 176.9, "unit": "rpm"},
      {"measurement": "Log2 differential normalized TPM ratio compared to glucose", "setting": "[16]", "value": 5.3},
      {"measurement": "Log2 differential normalized TPM ratio compared to lactose", "setting": "[16]", "value": 3.2},
      {"measurement": "Transcripts per million (rpm)", "setting": "[16]", "value": 520.3, "unit": "rpm"},
      {"measurement": "Log2 differential normalized TPM ratio compared to glucose", "setting": "[17]", "value": 2.7},
      {"measurement": "Log2 differential normalized TPM ratio compared to lactose", "setting": "[17]", "value": 3.9},
      {"measurement": "Transcripts per million (rpm)", "setting": "[17]", "value": 539.7, "unit": "rpm"},
      {"measurement": "Log2 differential normalized TPM ratio compared to glucose", "setting": "LBA1871 Neopullulanase, COG G", "value": 4.3},
      {"measurement": "Log2 differential normalized TPM ratio compared to lactose", "setting": "LBA1871 Neopullulanase, COG G", "value": 3.6},
      {"measurement": "Transcripts per million (rpm)", "setting": "LBA1871 Neopullulanase, COG G", "value": 43.6, "unit": "rpm"},
      {"measurement": "Log2 differential normalized TPM ratio compared to glucose", "setting": "[18]", "value": 3.6},
      {"measurement": "Log2 differential normalized TPM ratio compared to lactose", "setting": "[18]", "value": 3.2},
      {"measurement": "Transcripts per million (rpm)", "setting": "[18]", "value": 30, "unit": "rpm"},
      {"measurement": "Log2 differential normalized TPM ratio compared to glucose", "setting": "LBA1873 Acetate kinase, COG C", "value": 4.6},
      {"measurement": "Log2 differential normalized TPM ratio compared to lactose", "setting": "LBA1873 Acetate kinase, COG C", "value": 3.2},
      {"measurement": "Transcripts per million (rpm)", "setting": "LBA1873 Acetate kinase, COG C", "value": 67.3, "unit": "rpm"},
      {"measurement": "Log2 differential normalized TPM ratio compared to glucose", "setting": "LBA1878 Glycerol kinase, COG C", "value": 1.4},
      {"measurement": "Log2 differential normalized TPM ratio compared to lactose", "setting": "LBA1878 Glycerol kinase, COG C", "value": 1.3},
      {"measurement": "Transcripts per million (rpm)", "setting": "LBA1878 Glycerol kinase, COG C", "value": 17.8, "unit": "rpm"},
      {"measurement": "Log2 differential normalized TPM ratio compared to glucose", "setting": "[19]", "value": 3.8},
      {"measurement": "Log2 differential normalized TPM ratio compared to lactose", "setting": "[19]", "value": 4.2},
      {"measurement": "Transcripts per million (rpm)", "setting": "[19]", "value": 5835.9, "unit": "rpm"},
      {"measurement": "number of up-regulated genes", "setting": "RNA-seq, compared to glucose", "value": 116, "unit": "genes"},
      {"measurement": "number of uniquely induced genes", "setting": "RNA-seq, up-regulated genes not shared with the other PGs", "value": 58},
      {"measurement": "Log2 differential normalized TPM ratio compared to glucose", "setting": "[20]", "value": "−3"},
      {"measurement": "Log2 differential normalized TPM ratio compared to lactose", "setting": "[20]", "value": "−3.8"},
      {"measurement": "Transcripts per million (rpm)", "setting": "[20]", "value": 29.9, "unit": "rpm"},
      {"measurement": "Log2 differential normalized TPM ratio compared to glucose", "setting": "[21]", "value": 2},
      {"measurement": "Log2 differential normalized TPM ratio compared to lactose", "setting": "[21]", "value": 1.2},
      {"measurement": "Transcripts per million (rpm)", "setting": "[21]", "value": 1625.4, "unit": "rpm"},
      {"measurement": "Log2 differential normalized TPM ratio compared to glucose", "setting": "[22]", "value": 2.1},
      {"measurement": "Log2 differential normalized TPM ratio compared to lactose", "setting": "[22]", "value": 1.4},
      {"measurement": "Transcripts per million (rpm)", "setting": "[22]", "value": 55.9, "unit": "rpm"}
    ]}
  ]
}
